Among the data in US9834521B2, “Choline kinase inhibitors” (ARIAD Pharmaceuticals, Inc., priority 2013, dated 2017) are IC50 values, retold here.

Some results are limits rather than exact numbers.

T1 sequence (P35790 75-457): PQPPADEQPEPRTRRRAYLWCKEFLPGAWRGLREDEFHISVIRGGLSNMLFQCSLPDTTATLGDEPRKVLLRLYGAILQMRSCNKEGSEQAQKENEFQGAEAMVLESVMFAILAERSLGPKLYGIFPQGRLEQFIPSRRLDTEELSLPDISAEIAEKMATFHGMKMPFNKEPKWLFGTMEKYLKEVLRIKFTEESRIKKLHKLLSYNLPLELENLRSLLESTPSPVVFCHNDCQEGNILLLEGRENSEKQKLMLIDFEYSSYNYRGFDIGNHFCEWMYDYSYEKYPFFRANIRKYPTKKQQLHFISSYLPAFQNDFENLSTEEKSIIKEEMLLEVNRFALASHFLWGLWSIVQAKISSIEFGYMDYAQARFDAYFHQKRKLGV

One test addresses T1, truncated form of human Choline kinase α1 that includes residues 75-457 (Homo sapiens, UniProt P35790).
T1 construct: made in house
Nature of the test: Kinase Assay, coupled (ATP regeneration) LDH/PK assay, NADH absorbance. Format: biochemical.
Conditions: not given
As for the experimental part:
Absorbance of NADH (340 nm) was measured over 30 min using a SpectraMax M5 (Molecular Devices). Initial reaction velocity (ΔA340/Δt) was calculated and plotted as a function of inhibitor concentration in a 2-fold dilution series. IC50 values were obtained by fitting the relative velocities to a dose-response model.
As a reminder, the IC50 is the concentration that inhibits the measured activity by half. On to `CN1CCCN(Cc2ccc(-c3ccc(C(=O)N4CCC(=O)CC4)cc3)c(C#N)c2)CC1` [Example 31, 4-((4-methyl-1,4-diazepan-1-yl)methyl)-4′-(4-oxopiperidine-1-carbonyl)-[1,1′-biphenyl]-2-carbonitrile], for which the IC50 is under 2000 nM.

`CN1CCCN(Cc2ccc(-c3ccc(CNP(C)(C)=O)cc3)c(C#N)c2)CC1` [Example 46, N-((2′-cyano-4′-((4-methyl-1,4-diazepan-1-yl)methyl)-[1,1′-biphenyl]-4-yl)methyl)-P,P-dimethylphosphinic amide] had an IC50 of under 500 nM.

Molecule `CN1CCCN(Cc2ccc(-c3ccc(C(=O)N4CCCC4)cc3)c(C#N)c2)CC1` [Example 26, 4-((4-methyl-1,4-diazepan-1-yl)methyl)-4′-(pyrrolidine-1-carbonyl)-[1,1′-biphenyl]-2-carbonitrile] gave an IC50 of under 2000 nM.

Still in this test, the particulars now being: Examples designated with an asterisk (*): version 1 of the Kinase Assay, 200 nM enzyme; read-out: IC50.
Take `CN1CCCN(Cc2ccc(-c3ccccn3)cc2)CC1` [Example 141, 1-methyl-4-(4-(pyridin-2-yl)benzyl)-1,4-diazepane]: the half-inhibitory concentration (IC50) was under 50000 nM.

For `CN1CCCN(Cc2ccc(Cn3cncn3)cc2)CC1` [Example 143, 1-(4-((1H-1,2,4-triazol-1-yl)methyl)benzyl)-4-methyl-1,4-diazepane], the IC50 was under 50000 nM.

Consider `CN1CCCN(Cc2ccc(-c3cccc4ccccc34)cc2)CC1` [Example 136, 1-methyl-4-(4-(naphthalen-1-yl)benzyl)-1,4-diazepane], for which the IC50 is under 50000 nM.

For the molecule `CN1CCCN(Cc2ccc(-c3ccc(CC(=O)O)cc3)cc2)CC1` [Example 160, 2-(4′-((4-methyl-1,4-diazepan-1-yl)methyl)-[1,1′-biphenyl]-4-yl)acetic acid], the IC50 was under 50000 nM.

Regarding `COc1ccc(NCc2ccc(CN3CCCN(C)CC3)cc2)cc1` [Example 151, 4-methoxy-N-(4-((4-methyl-1,4-diazepan-1-yl)methyl)benzyl)aniline], the IC50 was under 50000 nM.

The same test, now with this note: Examples not designated with an asterisk; footnote prints version 1 of the Kinase Assay; read-out: IC50.
As for `CN1CCCN(Cc2ccc(-c3cncc(N)c3)c(C#N)c2)CC1` [Example 124, 2-(5-aminopyridin-3-yl)-5-((4-methyl-1,4-diazepan-1-yl)methyl)benzonitrile], the half-maximal inhibitory concentration (IC50) is under 50000 nM.

For the molecule `Cc1cc(S(=O)(=O)N(C)C)ccc1-c1ccc(CN2CCCN(C)CC2)cc1C#N` [Example 98, 2′-cyano-N,N,2-trimethyl-4′-((4-methyl-1,4-diazepan-1-yl)methyl)-[1,1′-biphenyl]-4-sulfonamide], the IC50 is under 500 nM.

Turning to `CN1CCCN(Cc2ccc(-c3ccc(CN4CCCN(C)CC4)cc3CNC=O)cc2)CC1` [Example 53, N-((4,4′-bis((4-methyl-1,4-diazepan-1-yl)methyl)-[1,1′-biphenyl]-2-yl)methyl)formamide], the IC50 was under 500 nM.

Take `CN1CCCN(Cc2ccc(-c3ccc(C(=O)N4CCCN(C)CC4)cc3N(C)C)c(C#N)c2)CC1` [Example 62, 2′-(dimethylamino)-4-((4-methyl-1,4-diazepan-1-yl)methyl)-4′-(4-methyl-1,4-diazepane-1-carbonyl)-[1,1′-biphenyl]-2-carbonitrile]: the IC50 is under 500 nM.

Regarding `CN1CCCN(Cc2ccc(-c3ccc(-c4nnc(N)s4)cc3)cc2)CC1` [Example 116, 5-(4′-((4-methyl-1,4-diazepan-1-yl)methyl)-[1,1′-biphenyl]-4-yl)-1,3,4-thiadiazol-2-amine], the half-maximal inhibitory concentration (IC50) was under 2000 nM.

Regarding `CN1CCCN(Cc2ccc(-c3ccc(CNCCNC(=O)OC(C)(C)C)cc3)c(C#N)c2)CC1` [Example 10, tert-butyl(2-(((2′-cyano-4′-((4-methyl-1,4-diazepan-1-yl)methyl)-[1,1′-biphenyl]-4-yl)methyl)amino)ethyl)carbamate], the IC50 is under 500 nM.

As for `CN1CCCN(Cc2ccc(-c3ccc(C(=O)N4CCN(CCO)CC4)cc3)c(C#N)c2)CC1` [Example 18, 4′-(4-(2-hydroxyethyl)piperazine-1-carbonyl)-4-((4-methyl-1,4-diazepan-1-yl)methyl)-[1,1′-biphenyl]-2-carbonitrile], the IC50 is under 500 nM.

For the molecule `CN1CCCN(Cc2ccc(-c3cn[nH]c3)c(C#N)c2)CC1` [Example 112, 5-((4-methyl-1,4-diazepan-1-yl)methyl)-2-(1H-pyrazol-4-yl)benzonitrile], the IC50 is under 500 nM.

Regarding `CC(=O)NS(=O)(=O)c1ccc(-c2ccc(CN3CCCN(C)CC3)cc2C#N)cc1` [Example 109, N-((2′-cyano-4′-((4-methyl-1,4-diazepan-1-yl)methyl)-[1,1′-biphenyl]-4-yl)sulfonyl)acetamide], the half-maximal inhibitory concentration (IC50) was under 500 nM.

Take `CN1CCCN(Cc2ccc(-c3ccc([N+](=O)[O-])cc3)c(C#N)c2)CC1` [Example 106, 4-((4-methyl-1,4-diazepan-1-yl)methyl)-4′-nitro-[1,1′-biphenyl]-2-carbonitrile]: the IC50 was under 500 nM.

On to `CN1CCCN(Cc2ccc(-c3ccc(C(=O)N4CCCN(C)CC4)cc3-c3ccc(C(=O)N(C)C)cc3)c(C#N)c2)CC1` [Example 76], for which the IC50 is under 2000 nM.

On to `CN1CCCN(Cc2ccc(-c3ccc4ccccc4c3)c(C#N)c2)CC1` [Example 126, 5-((4-methyl-1,4-diazepan-1-yl)methyl)-2-(naphthalen-2-yl)benzonitrile], for which the IC50 is under 50000 nM.

Take `COCCN1CCN(Cc2ccc(-c3ccc(CN4CCCN(C)CC4)cc3C#N)cc2)CC1` [Example 3, 4′-((4-(2-methoxyethyl)piperazin-1-yl)methyl)-4-((4-methyl-1,4-diazepan-1-yl)methyl)-[1,1′-biphenyl]-2-carbonitrile]: the IC50 is under 500 nM.

As to `CN1CCCN(Cc2ccc(-c3ccc(Oc4ccccc4N)cc3)c(C#N)c2)CC1` [Example 115, 4′-(2-aminophenoxy)-4-((4-methyl-1,4-diazepan-1-yl)methyl)-[1,1′-biphenyl]-2-carbonitrile], the IC50 is under 2000 nM.

Take `CC(=O)NCCc1ccc(-c2ccc(CN3CCCN(C)CC3)cc2C#N)cc1` [Example 95, N-(2-(2′-cyano-4′-((4-methyl-1,4-diazepan-1-yl)methyl)-[1,1′-biphenyl]-4-yl)ethyl)acetamide]: the IC50 was under 500 nM.

As to `CN1CCCN(Cc2ccc(-c3ccc(C#N)cc3)c(C#N)c2)CC1` [Example 105, 4-((4-methyl-1,4-diazepan-1-yl)methyl)-[1,1′-biphenyl]-2,4′-dicarbonitrile], the IC50 is under 500 nM.

In the case of `CN1CCCN(Cc2ccc(-c3ccc(/C(N)=N/O)cc3)c(C#N)c2)CC1` [Example 99, (E)-2′-cyano-N′-hydroxy-4′-((4-methyl-1,4-diazepan-1-yl)methyl)-[1,1′-biphenyl]-4-carboximidamide], the IC50 is under 500 nM.

With `CN1CCCN(Cc2ccc(-c3ccc(C(=O)N4CCN(C)CC4)cc3)c(C#N)c2)CC1` [Example 24, 4-((4-methyl-1,4-diazepan-1-yl)methyl)-4′-(4-methylpiperazine-1-carbonyl)-[1,1′-biphenyl]-2-carbonitrile], the IC50 is under 500 nM.

`Cc1cc(-c2ccc(CN3CCCN(C)CC3)cc2)ccc1CN1CCCN(C)CC1` [Example 54, 4,4′-((3-methyl-[1,1′-biphenyl]-4,4′-diyl)bis(methylene))bis(1-methyl-1,4-diazepane)]: the 50% inhibitory concentration (IC50) is under 500 nM.

Turning to `CN1CCCN(Cc2ccc(-c3ccc(C(=O)N4CCCN(C)CC4)cc3-c3ccc(C#N)cc3)c(C#N)c2)CC1` [Example 68, 4-((4-methyl-1,4-diazepan-1-yl)methyl)-4′-(4-methyl-1,4-diazepane-1-carbonyl)-[1:1′:2′,1″-terphenyl]-2,4″-dicarbonitrile], the IC50 was under 500 nM.

As for `CCOC(=O)Cc1ccc(-c2ccc(CN3CCCN(C)CC3)cc2)cc1` [Example 130, ethyl 2-(4′-((4-methyl-1,4-diazepan-1-yl)methyl)-[1,1′-biphenyl]-4-yl)acetate], the IC50 was under 50000 nM.

Regarding `CN1CCCN(Cc2ccc(-c3ccc(CN4CCCN(C)CC4)cc3CN)cc2)CC1` [Example 52, (4,4′-bis((4-methyl-1,4-diazepan-1-yl)methyl)-[1,1′-biphenyl]-2-yl)methanamine], the IC50 is under 500 nM.

For `CN1CCCN(Cc2ccc(-c3ccc(C(=O)N4CCC(O)C4)cc3)c(C#N)c2)CC1` (stereo not shown) [Example 25, 4′-(3-hydroxypyrrolidine-1-carbonyl)-4-((4-methyl-1,4-diazepan-1-yl)methyl)-[1,1′-biphenyl]-2-carbonitrile], the IC50 was under 500 nM.

As for `CN1CCCN(Cc2ccc(-c3ccc(C(=O)N4CCCN(C)CC4)cc3Br)c(C#N)c2)CC1` [Example 61, 2′-bromo-4-((4-methyl-1,4-diazepan-1-yl)methyl)-4′-(4-methyl-1,4-diazepane-1-carbonyl)[1,1′-biphenyl]-2-carbonitrile], the IC50 is under 500 nM.

For `CN1CCCN(Cc2ccc(-c3cccc4ccccc34)c(C#N)c2)CC1` [Example 125, 5-((4-methyl-1,4-diazepan-1-yl)methyl)-2-(naphthalen-1-yl)benzonitrile], the IC50 is under 50000 nM.

As for `CN1CCCN(Cc2ccc(-c3ccc(C(=O)N(C)CCO)cc3)c(C#N)c2)CC1` [Example 17, 2′-cyano-N-(2-hydroxyethyl)-N-methyl-4′-((4-methyl-1,4-diazepan-1-yl)methyl)-[1,1′-biphenyl]-4-carboxamide], the IC50 was under 500 nM.

`CN1CCCN(Cc2ccc(-c3ccc(C(=O)N4CCCN(C)CC4)cc3)c(F)c2)CC1` [Example 58, (2′-fluoro-4′-((4-methyl-1,4-diazepan-1-yl)methyl)-[1,1′-biphenyl]-4-yl)(4-methyl-1,4-diazepan-1-yl)methanone]: the IC50 is under 500 nM.

Take `CN1CCCN(Cc2ccc(-c3ccc(C(=O)N(C)C)cc3)c(C#N)c2)CC1` [Example 20, 2′-cyano-N,N-dimethyl-4′-((4-methyl-1,4-diazepan-1-yl)methyl)-[1,1′-biphenyl]-4-carboxamide]: the concentration for half-maximal inhibition (IC50) was under 50000 nM.

For the molecule `CN1CCCN(Cc2ccc(-c3ccc(C(=O)N4CCCC(O)C4)cc3)c(C#N)c2)CC1` (stereo not shown) [Example 23, 4′-(3-hydroxypiperidine-1-carbonyl)-4-((4-methyl-1,4-diazepan-1-yl)methyl)-[1,1′-biphenyl]-2-carbonitrile], the IC50 was under 500 nM.
